Columns and labels:
[1] = biological target: Activin receptor type-1B (Homo sapiens) (UniProt P36896); assay: Inhibition of ACVRB (unknown origin) at 0.1 uM relative to control
[2] = biological target: RAC-alpha serine/threonine-protein kinase (Homo sapiens) (UniProt P31749); assay: Inhibition of AKT1 (unknown origin) at 0.1 uM relative to control
[3] = biological target: Tyrosine-protein kinase ABL1 (Homo sapiens) (UniProt P00519); assay: Inhibition of Abl (unknown origin) at 0.1 uM relative to control
[4] = biological target: Aurora kinase A (Homo sapiens) (UniProt O14965); assay: Inhibition of Aurora A (unknown origin) at 0.1 uM relative to control
Sequence of Aurora kinase A (Homo sapiens) (O14965 whole entry): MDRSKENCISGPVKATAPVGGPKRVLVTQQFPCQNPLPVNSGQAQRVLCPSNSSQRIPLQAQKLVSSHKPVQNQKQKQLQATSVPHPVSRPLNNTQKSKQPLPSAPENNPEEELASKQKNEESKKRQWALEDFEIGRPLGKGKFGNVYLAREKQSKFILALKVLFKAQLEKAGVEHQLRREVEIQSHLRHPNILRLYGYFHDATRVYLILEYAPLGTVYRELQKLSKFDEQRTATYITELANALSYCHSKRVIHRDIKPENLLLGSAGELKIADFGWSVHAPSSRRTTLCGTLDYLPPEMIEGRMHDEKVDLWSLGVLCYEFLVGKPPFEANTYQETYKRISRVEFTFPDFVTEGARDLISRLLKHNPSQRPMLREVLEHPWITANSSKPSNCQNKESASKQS

[5] = biological target: Serine/threonine-protein kinase B-raf (Homo sapiens) (UniProt P15056); assay: Inhibition of B-Raf (unknown origin) at 0.1 uM relative to control
[6] = biological target: Tyrosine-protein kinase BTK (Homo sapiens) (UniProt Q06187); assay: Inhibition of BTK (unknown origin) at 0.1 uM relative to control
Sequence of Tyrosine-protein kinase BTK (Homo sapiens) (Q06187 whole entry): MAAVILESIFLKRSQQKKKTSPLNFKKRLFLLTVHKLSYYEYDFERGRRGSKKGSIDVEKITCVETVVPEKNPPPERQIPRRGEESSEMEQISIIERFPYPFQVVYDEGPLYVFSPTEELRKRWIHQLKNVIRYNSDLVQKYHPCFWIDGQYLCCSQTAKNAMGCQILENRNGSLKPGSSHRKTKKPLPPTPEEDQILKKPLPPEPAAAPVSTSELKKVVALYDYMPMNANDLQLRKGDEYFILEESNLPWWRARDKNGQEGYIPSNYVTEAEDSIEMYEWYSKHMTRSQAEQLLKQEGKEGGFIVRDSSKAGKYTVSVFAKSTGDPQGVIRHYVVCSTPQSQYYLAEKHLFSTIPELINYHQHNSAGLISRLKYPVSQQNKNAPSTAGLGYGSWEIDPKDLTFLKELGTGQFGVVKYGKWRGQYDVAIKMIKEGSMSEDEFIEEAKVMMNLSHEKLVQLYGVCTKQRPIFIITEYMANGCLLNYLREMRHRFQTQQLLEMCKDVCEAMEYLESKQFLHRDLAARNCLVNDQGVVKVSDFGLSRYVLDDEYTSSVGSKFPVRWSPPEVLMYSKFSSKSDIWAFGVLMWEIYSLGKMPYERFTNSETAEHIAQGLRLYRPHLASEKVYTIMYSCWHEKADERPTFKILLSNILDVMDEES

[7] = biological target: Protein-tyrosine kinase 6 (Homo sapiens) (UniProt Q13882); assay: Inhibition of Brk (unknown origin) at 0.1 uM relative to control
Sequence of Protein-tyrosine kinase 6 (Homo sapiens) (Q13882 whole entry, looked up, canonical isoform): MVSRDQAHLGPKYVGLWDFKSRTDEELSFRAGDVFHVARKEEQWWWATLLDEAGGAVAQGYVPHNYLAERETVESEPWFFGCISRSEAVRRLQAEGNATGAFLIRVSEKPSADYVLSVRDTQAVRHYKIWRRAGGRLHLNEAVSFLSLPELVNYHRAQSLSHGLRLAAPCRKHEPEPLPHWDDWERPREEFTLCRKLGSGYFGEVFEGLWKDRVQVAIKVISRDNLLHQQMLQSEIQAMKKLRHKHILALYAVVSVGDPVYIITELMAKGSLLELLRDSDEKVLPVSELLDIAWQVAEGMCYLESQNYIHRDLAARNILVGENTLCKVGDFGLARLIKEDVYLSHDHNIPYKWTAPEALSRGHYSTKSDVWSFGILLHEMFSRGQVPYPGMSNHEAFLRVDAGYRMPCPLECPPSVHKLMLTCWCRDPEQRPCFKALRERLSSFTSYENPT

[8] = biological target: Casein kinase I isoform epsilon (Homo sapiens) (UniProt P49674); assay: Inhibition of CK1epsilon (unknown origin) at 0.1 uM relative to control
Sequence of Casein kinase I isoform epsilon (Homo sapiens) (P49674 whole entry, looked up, canonical isoform): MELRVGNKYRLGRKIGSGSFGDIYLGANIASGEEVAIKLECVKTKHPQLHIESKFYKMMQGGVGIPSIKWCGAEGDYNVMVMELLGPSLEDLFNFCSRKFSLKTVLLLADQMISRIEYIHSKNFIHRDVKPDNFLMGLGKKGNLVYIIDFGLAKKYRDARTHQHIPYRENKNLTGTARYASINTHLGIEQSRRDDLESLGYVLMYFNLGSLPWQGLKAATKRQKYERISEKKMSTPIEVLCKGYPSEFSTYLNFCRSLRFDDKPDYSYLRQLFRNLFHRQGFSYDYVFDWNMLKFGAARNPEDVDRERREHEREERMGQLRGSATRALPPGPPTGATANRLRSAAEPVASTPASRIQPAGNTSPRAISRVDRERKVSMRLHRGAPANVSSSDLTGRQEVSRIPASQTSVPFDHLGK

[9] = biological target: Casein kinase I isoform gamma-2 (Homo sapiens) (UniProt P78368); assay: Inhibition of CK1gamma2 (unknown origin) at 0.1 uM relative to control
[10] = biological target: Casein kinase II subunit alpha (Homo sapiens) (UniProt P68400); assay: Inhibition of CK2alpha1 (unknown origin) at 0.1 uM relative to control
[11] = biological target: Receptor tyrosine-protein kinase erbB-4 (Homo sapiens) (UniProt Q15303); assay: Inhibition of ErbB4 (unknown origin) at 0.1 uM relative to control
[12] = biological target: Fibroblast growth factor receptor 1 (Homo sapiens) (UniProt P11362); assay: Inhibition of FGFR1 (unknown origin) at 0.1 uM relative to control
[13] = biological target: Vascular endothelial growth factor receptor 1 (Homo sapiens) (UniProt P17948); assay: Inhibition of Flt1 (unknown origin) at 0.1 uM relative to control
[14] = biological target: Receptor-type tyrosine-protein kinase FLT3 (Homo sapiens) (UniProt P36888); assay: Inhibition of Flt3 (unknown origin) at 0.1 uM relative to control
[15] = biological target: Glycogen synthase kinase-3 beta (Homo sapiens) (UniProt P49841); assay: Inhibition of GSK beta (unknown origin) at 0.1 uM relative to control
[16] = biological target: Inhibitor of nuclear factor kappa-B kinase subunit beta (Homo sapiens) (UniProt O14920); assay: Inhibition of IKK beta (unknown origin) at 0.1 uM relative to control
[17] = biological target: Tyrosine-protein kinase JAK3 (Homo sapiens) (UniProt P52333); assay: Inhibition of JAK3 (unknown origin) at 0.1 uM relative to control
[18] = biological target: Mitogen-activated protein kinase 9 (Homo sapiens) (UniProt P45984); assay: Inhibition of JNK2 (unknown origin) at 0.1 uM relative to control
Sequence of Mitogen-activated protein kinase 9 (Homo sapiens) (P45984 whole entry, looked up): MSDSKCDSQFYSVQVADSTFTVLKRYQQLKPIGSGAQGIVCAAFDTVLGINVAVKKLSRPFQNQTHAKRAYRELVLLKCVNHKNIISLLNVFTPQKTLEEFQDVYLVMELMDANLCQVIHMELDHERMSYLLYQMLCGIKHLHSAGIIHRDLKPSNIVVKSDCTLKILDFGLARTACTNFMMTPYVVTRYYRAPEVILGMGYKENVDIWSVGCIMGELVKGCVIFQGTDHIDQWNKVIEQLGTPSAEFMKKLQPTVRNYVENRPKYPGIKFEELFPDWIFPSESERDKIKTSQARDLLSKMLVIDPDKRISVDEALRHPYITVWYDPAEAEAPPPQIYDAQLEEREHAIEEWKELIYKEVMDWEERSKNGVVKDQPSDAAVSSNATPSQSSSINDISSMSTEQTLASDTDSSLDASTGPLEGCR

[19] = biological target: Mitogen-activated protein kinase 10 (Homo sapiens) (UniProt P53779); assay: Inhibition of JNK3 (unknown origin) at 0.1 uM relative to control
[20] = biological target: Dual specificity mitogen-activated protein kinase kinase 1 (Homo sapiens) (UniProt Q02750); assay: Inhibition of MEK1 (unknown origin) at 0.1 uM relative to control
[21] = biological target: Mitogen-activated protein kinase kinase kinase 9 (Homo sapiens) (UniProt P80192); assay: Inhibition of MLK1 (unknown origin) at 0.1 uM relative to control
[22] = biological target: Tyrosine-protein kinase Mer (Homo sapiens) (UniProt Q12866); assay: Inhibition of Mer (unknown origin) at 0.1 uM relative to control
[23] = biological target: Hepatocyte growth factor receptor (Homo sapiens) (UniProt P08581); assay: Inhibition of Met (unknown origin) at 0.1 uM relative to control
[24] = biological target: Serine/threonine-protein kinase Nek9 (Homo sapiens) (UniProt Q8TD19); assay: Inhibition of NEK9 (unknown origin) at 0.1 uM relative to control
[25] = biological target: Serine/threonine-protein kinase PAK 3 (Homo sapiens, UniProt O75914); assay: Inhibition of PAK3 (unknown origin) at 0.1 uM relative to control
[26] = biological target: Serine/threonine-protein kinase PAK 4 (Homo sapiens, UniProt O96013); assay: Inhibition of PAK4 (unknown origin) at 0.1 uM relative to control
[27] = biological target: Serine/threonine-protein kinase PAK 5 (Homo sapiens, UniProt Q9P286); assay: Inhibition of PAK5 (unknown origin) at 0.1 uM relative to control
[28] = biological target: Serine/threonine-protein kinase PAK 6 (Homo sapiens, UniProt Q9NQU5); assay: Inhibition of PAK6 (unknown origin) at 0.1 uM relative to control
[29] = biological target: Serine/threonine-protein kinase pim-1 (Homo sapiens) (UniProt P11309); assay: Inhibition of PIM1 (unknown origin) at 0.1 uM relative to control
[30] = biological target: Serine/threonine-protein kinase D1 (Homo sapiens) (UniProt Q15139); assay: Inhibition of PKD1 (unknown origin) at 0.1 uM relative to control
[31] = biological target: Serine/threonine-protein kinase PLK3 (Homo sapiens) (UniProt Q9H4B4); assay: Inhibition of PLK3 (unknown origin) at 0.1 uM relative to control
[32] = biological target: Serine/threonine-protein kinase N1 (Homo sapiens) (UniProt Q16512); assay: Inhibition of PRK1 (unknown origin) at 0.1 uM relative to control
Sequence of Serine/threonine-protein kinase N1 (Homo sapiens) (Q16512 2-942 limits assumed): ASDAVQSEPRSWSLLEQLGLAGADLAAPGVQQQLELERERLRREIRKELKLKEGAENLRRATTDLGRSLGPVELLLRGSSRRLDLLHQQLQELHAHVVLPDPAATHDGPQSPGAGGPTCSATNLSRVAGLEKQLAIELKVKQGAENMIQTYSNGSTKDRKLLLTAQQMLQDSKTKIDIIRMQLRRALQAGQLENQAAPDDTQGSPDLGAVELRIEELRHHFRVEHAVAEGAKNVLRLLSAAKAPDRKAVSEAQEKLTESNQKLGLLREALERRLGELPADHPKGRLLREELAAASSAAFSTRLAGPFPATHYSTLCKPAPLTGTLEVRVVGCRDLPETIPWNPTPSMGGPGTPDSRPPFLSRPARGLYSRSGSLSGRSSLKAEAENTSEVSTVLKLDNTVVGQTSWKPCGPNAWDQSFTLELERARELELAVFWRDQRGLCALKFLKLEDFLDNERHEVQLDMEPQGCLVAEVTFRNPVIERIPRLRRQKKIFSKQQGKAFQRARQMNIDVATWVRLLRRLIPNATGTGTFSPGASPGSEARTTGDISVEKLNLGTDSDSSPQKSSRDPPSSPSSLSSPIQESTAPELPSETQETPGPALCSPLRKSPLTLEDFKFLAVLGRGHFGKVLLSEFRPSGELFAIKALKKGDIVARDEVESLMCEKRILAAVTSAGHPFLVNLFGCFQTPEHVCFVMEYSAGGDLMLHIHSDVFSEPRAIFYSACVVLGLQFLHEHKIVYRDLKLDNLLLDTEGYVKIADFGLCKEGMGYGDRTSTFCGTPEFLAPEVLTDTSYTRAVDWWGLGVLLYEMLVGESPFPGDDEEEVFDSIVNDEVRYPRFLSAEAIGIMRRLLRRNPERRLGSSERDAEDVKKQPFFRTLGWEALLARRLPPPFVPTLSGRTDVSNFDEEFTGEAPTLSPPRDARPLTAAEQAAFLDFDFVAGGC

[33] = biological target: Phosphorylase b kinase gamma catalytic chain, skeletal muscle/heart isoform (Homo sapiens) (UniProt Q16816); assay: Inhibition of PhKgamma1 (unknown origin) at 0.1 uM relative to control
[34] = biological target: Proto-oncogene tyrosine-protein kinase receptor Ret (Homo sapiens) (UniProt P07949); assay: Inhibition of Ret (unknown origin) at 0.1 uM relative to control
[35] = biological target: Ribosomal protein S6 kinase alpha-3 (Homo sapiens) (UniProt P51812); assay: Inhibition of Rsk2 (unknown origin) at 0.1 uM relative to control
Sequence of Ribosomal protein S6 kinase alpha-3 (Homo sapiens) (P51812 whole entry): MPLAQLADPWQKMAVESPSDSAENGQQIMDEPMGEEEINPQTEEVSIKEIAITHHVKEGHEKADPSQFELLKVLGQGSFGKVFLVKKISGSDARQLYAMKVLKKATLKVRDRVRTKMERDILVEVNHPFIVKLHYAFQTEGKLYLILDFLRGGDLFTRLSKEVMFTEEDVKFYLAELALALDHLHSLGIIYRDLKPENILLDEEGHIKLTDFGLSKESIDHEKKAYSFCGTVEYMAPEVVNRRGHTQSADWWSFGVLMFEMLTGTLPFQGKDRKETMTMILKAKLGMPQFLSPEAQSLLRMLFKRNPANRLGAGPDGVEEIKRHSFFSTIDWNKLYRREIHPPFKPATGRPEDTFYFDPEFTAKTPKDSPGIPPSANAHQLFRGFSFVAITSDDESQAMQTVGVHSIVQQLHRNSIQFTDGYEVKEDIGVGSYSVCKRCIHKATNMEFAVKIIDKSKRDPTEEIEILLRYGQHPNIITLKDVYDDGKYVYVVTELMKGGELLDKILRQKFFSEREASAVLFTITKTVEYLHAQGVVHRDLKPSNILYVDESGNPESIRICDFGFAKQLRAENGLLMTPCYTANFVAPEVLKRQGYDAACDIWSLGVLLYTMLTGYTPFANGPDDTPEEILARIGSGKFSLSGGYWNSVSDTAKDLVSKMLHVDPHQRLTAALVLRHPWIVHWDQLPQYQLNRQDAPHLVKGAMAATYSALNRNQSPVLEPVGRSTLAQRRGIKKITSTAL

[36] = biological target: Ribosomal protein S6 kinase alpha-2 (Homo sapiens) (UniProt Q15349); assay: Inhibition of Rsk3 (unknown origin) at 0.1 uM relative to control
[37] = biological target: Serine/threonine-protein kinase Sgk3 (Homo sapiens) (UniProt Q96BR1); assay: Inhibition of SGK3 (unknown origin) at 0.1 uM relative to control
Sequence of Serine/threonine-protein kinase Sgk3 (Homo sapiens) (Q96BR1 whole entry): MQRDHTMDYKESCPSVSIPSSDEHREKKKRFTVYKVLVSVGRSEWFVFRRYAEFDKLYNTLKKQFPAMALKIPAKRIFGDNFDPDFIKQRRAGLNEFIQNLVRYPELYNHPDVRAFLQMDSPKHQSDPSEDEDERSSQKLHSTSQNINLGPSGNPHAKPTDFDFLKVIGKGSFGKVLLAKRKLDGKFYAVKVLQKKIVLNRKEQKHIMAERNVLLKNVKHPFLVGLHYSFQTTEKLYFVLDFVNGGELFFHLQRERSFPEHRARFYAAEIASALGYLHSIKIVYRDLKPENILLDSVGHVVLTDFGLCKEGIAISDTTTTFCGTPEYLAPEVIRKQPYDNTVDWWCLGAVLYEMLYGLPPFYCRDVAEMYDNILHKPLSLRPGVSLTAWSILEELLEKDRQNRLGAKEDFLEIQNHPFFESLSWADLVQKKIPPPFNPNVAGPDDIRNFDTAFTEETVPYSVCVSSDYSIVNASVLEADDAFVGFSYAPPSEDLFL

[38] = biological target: Proto-oncogene tyrosine-protein kinase Src (Homo sapiens) (UniProt P12931); assay: Inhibition of Src (unknown origin) at 0.1 uM relative to control
[39] = biological target: Mitogen-activated protein kinase 14 (Homo sapiens) (UniProt Q16539); assay: Inhibition of p38alpha (unknown origin) at 0.1 uM relative to control
Sequence of Mitogen-activated protein kinase 14 (Homo sapiens) (Q16539 whole entry): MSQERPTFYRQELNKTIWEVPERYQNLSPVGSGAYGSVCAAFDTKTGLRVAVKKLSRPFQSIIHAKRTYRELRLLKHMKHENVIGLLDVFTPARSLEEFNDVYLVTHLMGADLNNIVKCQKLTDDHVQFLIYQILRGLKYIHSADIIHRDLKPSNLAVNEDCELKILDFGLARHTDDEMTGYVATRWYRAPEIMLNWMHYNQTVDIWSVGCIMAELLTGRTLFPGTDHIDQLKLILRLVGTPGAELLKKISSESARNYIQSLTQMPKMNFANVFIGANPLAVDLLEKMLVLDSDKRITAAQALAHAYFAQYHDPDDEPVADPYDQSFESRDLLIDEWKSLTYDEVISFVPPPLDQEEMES

Homo sapiens = species on record: Homo sapiens; assay: Inhibition of p70S6K (unknown origin) at 0.1 uM relative to control

| inhibition [1] [%] | inhibition [2] [%] | inhibition [3] [%] | inhibition [4] [%] | inhibition [5] [%] | inhibition [6] [%] | inhibition [7] [%] | inhibition [8] [%] | inhibition [9] [%] | inhibition [10] [%] | inhibition [11] [%] | inhibition [12] [%] | inhibition [13] [%] | inhibition [14] [%] | inhibition [15] [%] | inhibition [16] [%] | inhibition [17] [%] | inhibition [18] [%] | inhibition [19] [%] | inhibition [20] [%] | SMILES | further results |
| --- | --- | --- | --- | --- | --- | --- | --- | --- | --- | --- | --- | --- | --- | --- | --- | --- | --- | --- | --- | --- | --- |
| 79.3 | 3.3 | 99.5 | 25.9 | 49 | 86.3 | 92.5 | 44 | -1.5 | -3.5 | 78.9 | 83 | 18.6 | 83.4 | 11 | 3.3 | 45.4 | 14.8 | 2.3 | 23.8 | CN1CCc2cc(-c3cnc4[nH]cc(C(=O)c5ccccc5Cl)c4c3)ccc2C1 | inhibition [21]: 11.4%; inhibition [22]: 53.8%; inhibition [23]: 13.3%; inhibition [24]: -0.9%; inhibition [25]: 92.6%; inhibition [26]: 29.2%; inhibition [27]: 28.5%; inhibition [28]: 21.8%; inhibition [29]: -2%; inhibition [30]: 49.5%; inhibition [31]: -5.8%; inhibition [32]: -1.6%; inhibition [33]: 8.3%; inhibition [34]: 18.4%; inhibition [35]: 6%; inhibition [36]: -6%; inhibition [37]: 19.5%; inhibition [38]: 92.9%; inhibition [39]: 34.8%; inhibition (Homo sapiens): 15.3% |
| -0.1 | 1.1 | -0.2 | 10.3 | 8.2 | 0.8 | 10.2 | 7.3 | 18.3 | 5.2 | -1 | -4.5 | -6 | 8.7 | 4.6 | 6.5 | -1.3 | -1 | 2.7 | 2.5 | COCCNc1nc2ccc(C#CC3(O)CCCCC3)cc2n1-c1ccnc(N)n1 | inhibition [21]: 15.4%; inhibition [22]: 8.2%; inhibition [23]: 2.6%; inhibition [24]: 1.6%; inhibition [25]: 3.3%; inhibition [26]: 89.5%; inhibition [27]: 75.1%; inhibition [28]: 49.9%; inhibition [29]: 3.8%; inhibition [30]: 16.4%; inhibition [31]: 9.2%; inhibition [32]: -2.3%; inhibition [33]: 12.5%; inhibition [34]: 4.4%; inhibition [35]: 11.7%; inhibition [36]: 14.9%; inhibition [37]: 9.3%; inhibition [38]: 1.9%; inhibition [39]: 4.4%; inhibition (Homo sapiens): 7.2% |
